The NIST ThermoML archive (doi:10.1016/j.jct.2009.05.019)
± gives the expanded uncertainty stated by the source.

Assay: molar enthalpy of vaporization or sublimation
Conditions: 298.15 K; Crystal; Calvet microcalorimetry

c1ccc2c(c1)sc1ccccc12 [dibenzothiophene]
molar enthalpy: 22.3 ± 0.239 kcal/mol
